{"source": "patent US5212075A", "about": "“Compositions and methods for introducing effectors to pathogens and cells” (priority 1991, dated 1993)", "key": {"E. coli K1 pilA+::tetR": {"tested_on": "E. coli K1 pilA+::tetR", "assay": "microbe, parasite or virus in culture", "type": "cell-based", "conditions": "for IC100: Escherichia coli, 0.05 h, read-out: Concentration causing total inhibition of yeast agglutination; for Relative Inhibitory Activity: concentration of methyl α-D-mannopyranoside divided by the concentration of the compound", "protocol": "Compounds 4, 6-9 and 12 were assayed for bacterial receptor binding using agglutination studies with yeast cells and their inhibitory activity was compared to that of methyl α-D-mannopyranoside 13 (Firon et al. (1983) Carbohydrate Research 120:235; Eshdat et al. (1978) Biochem. Biophys. Res. Commun. 85:1551; and Firon et al. (1982) Biochem. Biophys. Res. Commun. 105:1426. The bacterial strain used in our study was a systemically invasive E. coli K1 pilA+::tetR strain that is responsible for sepsis and meningitis in human infants (Bloch et al. (1990) Infection and Immunity 58:275). A summary of the results is given in Table 2.\n^a E. coli K1 pilA+::tetR were grown for 24 h at 37° C. on\nsolid LB media supplemented with tetracycline and were suspended with a\ncotton swab in 4 mL of Dulbecco's PBS to a final dilution of 2 ×\n10^8 cells/mL. Yeast (Saccharomyces cerevisiae, wild type) were grown\nfor 36 h on solid YPD media at 30° C. and were suspended with a\ncotton swab in 4 mL of Dulbecco's PBS to a final dilution of 1 ×\n10^8 cells mL. Protein concentrations were determined by BCA Protein\nAssay (Pierce). Agglutination assays were performed on a 20 well ceramic\nring plate. Typically, 90 μl of a solution of the test compound was\ncombined with 30 μl of the bacterial suspension. After 30 seconds, 30\nμl of the yeast suspension was added to give a final volume of 150\nμl and the wells were allowed to develop for 3 min. with agitation. A\nμl aliquot was removed from each well and spread onto a standard\nmicroscope slide. The slides were quickly heat fixed and mounted with 10\nμl of glycerol. The slides were examined under phase contrast at\n500× magnification using a Zeiss Axioskip microscope. Agglutination\nwas observed as clusters of cells. total inhibition of agglutination was\ndetermined by the observation of single cells only.\n^b Concentration causing total inhibition of yeast agglutination."}, "E. coli cell": {"tested_on": "E. coli cell", "assay": "Localization of protein A-gold particles on the E. coli cell surface by transmission electron microscopy", "type": "cell-based", "conditions": "avidin, anti-avidin antibodies, protein A labelled with gold particles (15 nm); no localization without hybrid molecule", "description": "The particles were bound through a hybrid molecule consisting of a mannose binding moiety attached to biotin through a carbon linkage. Avidin, anti-avidin antibodies, and protein A labelled with the gold particles were exposed to cell and completed a bridge binding the gold particles. The location of a gold particle is shown by the arrow.\nFIG. 6 is an electron micrograph showing a strain of E. coli, similar to that illustrated in FIG. 5, in the absence of the hybrid molecule. The cell was exposed to avidin, anti-avidin antibodies, and protein A labelled with gold particles. No localization of the gold particles was achieved without the hybrid molecules.\nE coli cells bound with avidin, as described above, were sequentially exposed to anti-avidin antibodies and gold (15 nm) colloidal particles bound to protein A. It was expected that the gold would localize on the E. coli cell surface through an antibody-protein A bridge. Localization on bacterial pili was confirmed by transmission electron microscopy (TEM). The results are shown in FIG. 5 (typical gold particle shown by arrow) and FIG. 6 (control where E. coli cells incubated with protein A-gold without anti-avidin antibody)."}, "complement (Clq)": {"tested_on": "complement (Clq)", "assay": "Binding of complement (Clq) to anti-avidin (IgG2) bound to E. coli through the hybrid molecule", "description": "Clq binding is the first step in the complement cascase which is part of the humoral response."}}}
{"compound": "CCC[C@H]1O[C@H](CO)[C@@H](O)[C@H](O)[C@@H]1O", "note": "[Compound 4]", "values": [{"measurement": "IC100", "setting": "E. coli K1 pilA+::tetR", "value": 7000, "unit": "µM"}, {"measurement": "Relative Inhibitory Activity", "setting": "E. coli K1 pilA+::tetR", "value": 9.6}]}
{"compound": "O=C(O)CC[C@H]1O[C@H](CO)[C@@H](O)[C@H](O)[C@@H]1O", "note": "[Compound 6]", "values": [{"measurement": "IC100", "setting": "E. coli K1 pilA+::tetR", "value": 47000, "unit": "µM"}, {"measurement": "Relative Inhibitory Activity", "setting": "E. coli K1 pilA+::tetR", "value": 1.4}]}
{"compound": "NCCC[C@H]1O[C@H](CO)[C@@H](O)[C@H](O)[C@@H]1O", "note": "[Compound 7]", "values": [{"measurement": "IC100", "setting": "E. coli K1 pilA+::tetR", "value": 40000, "unit": "µM"}, {"measurement": "Relative Inhibitory Activity", "setting": "E. coli K1 pilA+::tetR", "value": 1.7}]}
{"compound": "OCCC[C@H]1O[C@H](CO)[C@@H](O)[C@H](O)[C@@H]1O", "note": "[Compound 8]", "values": [{"measurement": "IC100", "setting": "E. coli K1 pilA+::tetR", "value": 13000, "unit": "µM"}, {"measurement": "Relative Inhibitory Activity", "setting": "E. coli K1 pilA+::tetR", "value": 5.2}]}
{"compound": "O=C(CCCC[C@@H]1SC[C@@H]2NC(=O)N[C@@H]21)NCCC[C@H]1O[C@H](CO)[C@@H](O)[C@H](O)[C@@H]1O", "note": "[Compound 9]", "values": [{"measurement": "Localization of gold particles on the E. coli surface (TEM)", "setting": "E. coli cell", "value": "localization of gold particles on the surface of an E. coli cell"}, {"measurement": "Clq binding to anti-avidin (IgG2) bound to E. coli", "setting": "complement (Clq)", "value": "has also been shown"}, {"measurement": "IC100", "setting": "E. coli K1 pilA+::tetR", "value": 7000, "unit": "µM"}, {"measurement": "Relative Inhibitory Activity", "setting": "E. coli K1 pilA+::tetR", "value": 9.6}]}
{"compound": "CCC[C@@H]1O[C@H](CO)[C@@H](O)[C@H](O)[C@@H]1O", "note": "[Compound 12]", "values": [{"measurement": "Inhibitory activity on agglutination", "setting": "E. coli K1 pilA+::tetR; at a concentration of 100 mM", "value": "no inhibitory activity"}]}
{"compound": "CO[C@H]1O[C@H](CO)[C@@H](O)[C@H](O)[C@@H]1O", "note": "[Compound 13, methyl α-D-mannopyranoside, reference compound]", "values": [{"measurement": "IC100", "setting": "E. coli K1 pilA+::tetR", "value": 67000, "unit": "µM"}, {"measurement": "Relative Inhibitory Activity", "setting": "E. coli K1 pilA+::tetR", "value": 1}]}
{"compound": "O=[N+]([O-])c1ccc(O[C@H]2O[C@H](CO)[C@@H](O)[C@H](O)[C@@H]2O)cc1", "note": "[Compound 14, reference compound]", "values": [{"measurement": "IC100", "setting": "E. coli K1 pilA+::tetR", "value": 1600, "unit": "µM"}, {"measurement": "Relative Inhibitory Activity", "setting": "E. coli K1 pilA+::tetR", "value": 42}]}
{"compound": "avidin: avidin alone, a soluble glycosylated protein used in place of streptavidin [reference compound]", "values": [{"measurement": "Concentration causing total inhibition of yeast agglutination", "setting": "E. coli K1 pilA+::tetR; E. coli K1 pilA+::tetR with Saccharomyces cerevisiae, 3 min, single cells only under phase contrast", "value": 0.4, "unit": "mM"}]}
